Counter-ions that a name gives are not always drawn.
Question: With `O=C(Cc1ccc(C(F)(F)F)cc1)N1CCN(C(=O)C(F)(F)F)CC1CN1CCCC1` (racemic) (as salt: hydrochloride) [Example 1h, 4-Trifluoroacetyl-1-[(-4-trifluoromethylphenyl)acetyl]-2-(R,S)-(1-pyrrolidinyl)methyl]piperazine hydrochloride] as the compound, how does the melting point read?
Answer: 140 to 145 °C

Question: For `CN(C(=O)Cc1ccc(S(C)(=O)=O)cc1)[C@@H]1CCCC[C@H]1N1CCCC1.Cl` (racemic), which melting point is on record?
Answer: 152 to 154 °C (dec.)

Question: Which melting point does the source give for `CN(C(=O)Cc1ccccc1NS(C)(=O)=O)[C@H](CN1CCCC1)c1cccc(NS(C)(=O)=O)c1` (as salt: hydrochloride) [Example 3pp, 2-(2-Methanesulfonamidophenyl)-N-methyl-N-[(1S)-1-(3-methanesulfon-amidophenyl)-2-(1-pyrrolidinyl)ethyl]acetamide Hydrochloride] here?
Answer: 160 °C (dec.)

Question: For `CN(C(=O)Cc1ccc(S(C)(=O)=O)cc1)[C@H](CN1CCCC1)c1cccc([N+](=O)[O-])c1` (as salt: HCl), which melting point is on record?
Answer: 276 to 277 °C

Question: For `CN(C(=O)Cc1ccc(Cl)c(Cl)c1)[C@H](CN1CCCC1)c1cccc(NC(=O)CCC(=O)NCC(=O)O)c1` (as salt: hydrochloride) [Example 3j, 2-(3,4-Dichlorophenyl)-N-methyl-N-{(1R,S)-1-[3-(3-(((hydroxycarbonyl)-methyl)aminocarbonyl)propionamido)phenyl]-2-(1-pyrrolidinyl)ethyl}acetamide hydrochloride], which melting point is on record?
Answer: 158 °C (dec.)

Question: Which melting point does the source give for `CN(C(=O)C(c1ccccc1)c1ccccc1)C1CCCCC1N1CCCC1` (racemic) (as salt: HCl) [Example 5s, (±)-trans-N-Methyl-N-[2-(1-pyrrolidinyl)cyclohexyl]2,2-dphenylacetamide Hydrochloride] here?
Answer: 295 to 297 °C (dec.)

Question: Which melting point does the source give for `COC(=O)N1CCN(C(=O)Cc2ccccc2N(S(C)(=O)=O)S(C)(=O)=O)C(CN2CCCC2)C1` (racemic) (as salt: hydrochloride) [Example 1d, Methyl-4-[(2-[N,N-bis-methylsulfonamido]phenyl)acetyl]-3-(R,S)-[(1-pyrrolidinyl)methyl]-1-piperazinecarboxylate hydrochloride] here?
Answer: 145 to 150 °C

Question: Which melting point does the source give for `CCOP(=O)(Nc1cccc([C@@H](CN2CCCC2)N(C)C(=O)Cc2ccc(Cl)c(Cl)c2)c1)OCC` (as salt: hydrochloride) [Example 3g, 2-(3,4-Dichlorophenyl)-N-methyl-N-[(1S)-1-[3-(diethyl Phosphoryl)amino]phenyl)-2-(1-pyrrolidinyl)ethyl]acetamide hydrochloride] here?
Answer: 140 to 142 °C

Question: With `CN(C(=O)Cc1cc2c(cc1S(=O)(=O)N(C)Cc1ccccc1)OCO2)[C@H](CN1CCCC1)c1ccccc1` (as salt: salt) [Example 131, 2-[2-(N-Benzyl-N-methylsulfamoyl)-4,5-methylenedioxyphenyl]-N-methyl-N-[(1S)-1-phenyl-2-[(1-pyrrolidinyl)ethyl]]acetamide] as the compound, how does the melting point read?
Answer: 236 to 238 °C

Question: With `CN(C(=O)Cc1ccc(OCc2ccccc2)c(NS(C)(=O)=O)c1)[C@H](CN1CCCC1)c1ccccc1` (as salt: HCl) [Example 123, 2-(3-N-Methylsulfonamido-3-amino-4-benzyloxyphenyl)-N-methyl-N-[(1S)-1-phenyl-2-(1-pyrrolidinyl)ethyl]acetamide] as the compound, how does the melting point read?
Answer: 219 to 221 °C

Question: For `COC(=O)N1CCN(C(=O)Cc2ccccc2N)C(CN2CCCC2)C1` (racemic) (as salt: hydrochloride) [(R,S-9f), (R,S)-Methyl 4-[(2-aminophenyl)acetyl]-3-[(1-pyrrolidinyl)-methyl]-1-piperazine-carboxylate dihydrochloride], which melting point is on record?
Answer: 195 °C (dec.)

Question: With `COC(=O)N1CCN(C(=O)Cc2ccc(C(F)(F)F)cc2)C(CN2CCCC2)C1` (racemic) (as salt: hydrochloride) [(R,S-9b), (R,S)-Methyl 4-[(4-trifluoromethylphenyl)acetyl]-3-[(1-pyrrolidinyl)-methyl]-1-piperazinecarboxylate hydrochloride] as the compound, how does the melting point read?
Answer: 210 °C

Question: With `COC(=O)N1CCN(C(=O)Cc2ccc(C(F)(F)F)cc2N(S(C)(=O)=O)S(C)(=O)=O)C(CN2CCCC2)C1` (racemic) (as salt: hydrochloride) [Example 1b, Methyl-4-[(2-[N,N-bis-methylsulfonamido]-4-trifluoromethyphenyl)acetyl]-3-(R,S)-[(1-pyrrolidinyl)-methyl]-1-piperazinecarboxylate dihydrochloride] as the compound, how does the melting point read?
Answer: 155 to 160 °C

Question: With `CN(C(=O)Cc1ccc(Cl)c(Cl)c1)[C@@H]1c2cc(N(CC(=O)O)CC(=O)O)ccc2CC[C@H]1N1CCCC1` (relative stereo) (as salt: HCl) as the compound, how does the melting point read?
Answer: 160 °C (dec.)

Question: For `COc1cc(CC(=O)N(C)[C@H](CN2CCCC2)c2ccccc2)c(S(=O)(=O)N(C)CC(=O)O)cc1OC` (as salt: HCl) [Example 142, N-Methyl-[[2-(N-sulfamoyl)-4,5-dimethoxyphenyl]-N-methyl-N-[(1S)-1-phenyl-2-[1-(pyrrolidinyl)ethyl]]acetamido]glycine], which melting point is on record?
Answer: 231 to 233 °C (dec.)

Question: With `CC(C)C(=O)Nc1cccc([C@@H](CN2CCCC2)N(C)C(=O)Cc2ccccc2NC(=O)C(C)C)c1` (as salt: sulfonic acid salt) [Example 3qq, 2-(2-Iso-butyramidophenyl)-N-methyl-N-[(1S)-1-(3-isobutyramido-phenyl)-2-(1-pyrrolidinyl)ethyl]acetamide Methanesulfonic acid salt] as the compound, how does the melting point read?
Answer: 143 to 145 °C

Question: For `COc1ccc(CC(=O)N(C)[C@H](CN2CCCC2)c2ccccc2)cc1NS(C)(=O)=O` (as salt: methane sulfonate) [Example 122, 2-(3-N-Methylsulfonamido-3-amino-4-methoxyphenyl)-N-methyl-N-[(1S)-1-phenyl-2-(1-pyrrolidinyl)ethyl]acetamide methane sulfonate], which melting point is on record?
Answer: 149 to 151 °C

Question: Which melting point does the source give for `CN(C(=O)Cc1ccc(C(F)(F)F)cc1[N+](=O)[O-])[C@@H]1c2ccccc2C[C@H]1N1CCCC1` (racemic) (as salt: HCl) here?
Answer: 249 to 250 °C

Question: With `O=C(Cc1ccc(Cl)c(Cl)c1)N1CCN(C(=O)C(F)(F)F)C[C@H]1CN1CCCC1` (as salt: hydrochloride) [(R-3h), (R)-4-Trifluoroacetyl-1-(3,4-dichlorophenyl)acetyl]-2-[(1-pyrrolidinyl)methyl]-piperazine hydrochloride] as the compound, how does the melting point read?
Answer: 145 to 147 °C

Question: For `COc1cc(CC(=O)N(C)[C@H](CN2CCCC2)c2ccccc2)c(S(=O)(=O)N2CCCC2)cc1OC` (as salt: HCl) [Example 134, 2-[2-(N-Pyrrolidinesulfamoyl)-4,5-dimethoxyphenyl]-N-methyl-N-[(1S)-1-phenyl-2-[(1-pyrrolidinyl)ethyl]]acetamide], which melting point is on record?
Answer: 240 to 242 °C

Question: With `COc1cc(CC(=O)N(C)[C@H](CN2CC[C@H](O)C2)c2ccccc2)c(S(=O)(=O)N2CCOCC2)cc1OC` (as salt: HCl) [Example 141, 2-[2-N-(Morpholinesulfamoyl)-4,5-dimethoxyphenyl]-N-methyl-N-[(1S)-1-phenyl-2-[1-(3S)-(3-hydroxypyrrolidinyl)ethyl]]acetamide] as the compound, how does the melting point read?
Answer: 158 to 161 °C

Question: With `COc1cc(CC(=O)N(C)[C@H](CN2CCCC2)c2ccccc2)c(S(=O)(=O)N2CCOCC2)cc1OC` (as salt: HCl) [Example 140, 2-[2-N-(Morpholinesulfamoyl)-4,5-dimethoxyphenyl]-N-methyl-N-[(1S)-1-phenyl-2-[1-(pyrrolidinyl)ethyl]]acetamide] as the compound, how does the melting point read?
Answer: 229 to 231 °C

Question: With `COc1cc(CC(=O)N(C)[C@H](CN2CC[C@H](O)C2)c2ccccc2)c(S(=O)(=O)N2CCN(C)CC2)cc1OC` (as salt: HCl) [Example 139] as the compound, how does the melting point read?
Answer: 168 to 171 °C

Question: Which melting point does the source give for `CN(C(=O)Cc1ccccc1NCC(=O)O)C1CCCCC1N1CCCC1` (centres unmarked) (as salt: HCl) here?
Answer: 212 to 214 °C (dec.)

Question: Which melting point does the source give for `CS(=O)(=O)c1ccc(CC(=O)N2CCN(S(C)(=O)=O)CC2CN2CCCC2)cc1` (racemic) (as salt: hydrochloride) [(R,S-8b), (R,S)-4-Methanesulfonyl-1-[(4-methylsulfonylphenyl)acetyl]-2-[(1-pyrrolidinyl)-methyl]piperazine hydrochloride] here?
Answer: 185 to 188 °C

Question: Which melting point does the source give for `CN(C(=O)Cc1ccccc1NS(C)(=O)=O)C(CN1CCCC1)c1cccc(O)c1` (racemic) (as salt: sulfonic acid salt) [Example 3vv, (R,S)-1-[2-(Methanesulfonylamino)phenyl-N-methylacetamido]-1-(3-hydroxyphenyl)-2-(1-pyrrolidino)-ethane, methanesulfonic acid salt] here?
Answer: 232 to 234 °C

Question: For `CN(C(=O)Cc1ccccc1N)[C@H](CN1CCCC1)c1cccc(N)c1` (as salt: HCl), which melting point is on record?
Answer: 219 to 222 °C

Question: Which melting point does the source give for `COC(=O)CNC(=O)c1ccccc1CC(=O)N(C)[C@H](CN1CCCC1)c1ccccc1` (as salt: hydrochloride) [Example 3mm, Methyl N-[2-(2-pheny)-N-methyl-N-{[1S]-1-phenyl-2-(1-pyrrolidinyl)ethyl}acetamido]2-oxo-glycinate hydrochloride] here?
Answer: 204 to 206 °C

Question: For `CNS(=O)(=O)c1ccc(CC(=O)N2CCN(C(=O)OC)CC2CN2CCCC2)cc1` (racemic) (as salt: hydrochloride) [Example 1f, Methyl-4-[-4-[N-methylamino)sulfamyl]phenyl)acetyl]-3-(R,S)-[(1-pyrrolidinyl)methyl]-1-piperazinecarboxylate hydrochloride], which melting point is on record?
Answer: 135 to 140 °C

Question: For `CN(C(=O)Cc1ccc(S(C)(=O)=O)cc1)[C@@H]1c2ccccc2C[C@H]1N1CCCC1` (racemic) (as salt: HCl), which melting point is on record?
Answer: 246 to 248 °C

Question: For `CC(=O)N1CCN(C(=O)Cc2ccc(C(F)(F)F)cc2)C(CN2CCCC2)C1` (racemic) (as salt: hydrochloride) [(R,S-10b)], which melting point is on record?
Answer: 110 °C

Question: With `CCOP(=O)(OCC)N1CCN(C(=O)Cc2ccc(Cl)c(Cl)c2)[C@H](CN2CCCC2)C1` (as salt: hydrochloride) [(R-3g), (R)-4-(Diethoxyphosphonate)-1-[(3,4-dichlorophenyl)acetyl]-2-[(1-pyrolidinyl)methyl]-piperazine hydrochloride] as the compound, how does the melting point read?
Answer: 168 to 170 °C

Reference: patent publication US20050020576A1, “Kappa agonist compounds and pharmaceutical formulations thereof” (priority 1996, published 2005)
